Measurements as given in patent publication US20210221866A1, “PROTEASE-RESISTANT LIPIDATED GLP-1 ANALOGS” (MEDIMMUNE LIMITED, priority 2015, published 2021).
Like-named read-outs stand apart in the source and are kept apart here. Numbered stars: 1 amine (or outer) side, 2 acyl side, 3 side chain; on linkers, the order of the positions; unused ones are H or OH. Square brackets hold non-standard residues; d marks the D form. Side chains are listed from the residue outwards. Peptide text beside a SMILES is read from it. * marks the point of attachment. C16 diacid = O=C(O)CCCCCCCCCCCCCCC(=O)*; γGlu = O=C(O)[C@H](CCC(=O)[*:2])N[*:1]; αMeF = C[C@](N)(Cc1ccccc1)C(=O)O; αMeK = C[C@](N)(CCCCN)C(=O)O; Lauroyl = CCCCCCCCCCCC(=O)*; αMeS = C[C@](N)(CO)C(=O)O; AEEA = NCCOCCOCC(=O)O; Aib = CC(C)(N)C(=O)O

What was measured:
Type in all cases: cell-based
GLP-1R (INS1e cells) = target: T1, GLP-1R (INS1e cells) (Rattus norvegicus, UniProt P32301); experiment: INS1e assay, cAMP activity at GLP-1R
T1 construct: endogenous in cells; host or cells: INS1e cells
T1 sequence (P32301 22-463): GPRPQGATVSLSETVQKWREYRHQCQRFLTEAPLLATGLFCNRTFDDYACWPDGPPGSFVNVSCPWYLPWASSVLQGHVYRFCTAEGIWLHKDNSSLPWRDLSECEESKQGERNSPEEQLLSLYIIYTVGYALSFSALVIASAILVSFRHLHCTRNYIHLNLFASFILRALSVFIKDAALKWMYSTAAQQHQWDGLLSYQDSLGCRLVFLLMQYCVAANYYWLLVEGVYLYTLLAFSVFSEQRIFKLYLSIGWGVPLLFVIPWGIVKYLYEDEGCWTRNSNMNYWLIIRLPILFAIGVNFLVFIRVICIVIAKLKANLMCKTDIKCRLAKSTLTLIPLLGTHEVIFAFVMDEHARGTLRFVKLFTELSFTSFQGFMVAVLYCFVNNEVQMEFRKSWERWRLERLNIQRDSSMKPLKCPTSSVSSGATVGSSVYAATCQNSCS

[1] = target: T2, human glucagon receptor (GCGR) (Homo sapiens, UniProt P47871); experiment: cAMP assay, human GCGR cells
T2 construct: expressed in transfected cells; host or cells: HEK293 cells or CHO cells
T2 sequence (P47871 26-477): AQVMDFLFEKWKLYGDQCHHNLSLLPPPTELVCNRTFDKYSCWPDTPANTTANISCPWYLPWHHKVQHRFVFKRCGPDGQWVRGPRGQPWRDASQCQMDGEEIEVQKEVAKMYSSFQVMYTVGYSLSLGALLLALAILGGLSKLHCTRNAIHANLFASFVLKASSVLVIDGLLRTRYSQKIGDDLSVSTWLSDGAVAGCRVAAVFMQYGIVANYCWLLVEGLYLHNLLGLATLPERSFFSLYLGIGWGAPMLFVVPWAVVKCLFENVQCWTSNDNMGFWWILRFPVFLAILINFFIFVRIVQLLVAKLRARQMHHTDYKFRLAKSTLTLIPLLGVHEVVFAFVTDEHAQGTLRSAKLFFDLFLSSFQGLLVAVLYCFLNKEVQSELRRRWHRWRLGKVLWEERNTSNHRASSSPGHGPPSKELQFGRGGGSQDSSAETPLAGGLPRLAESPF
Procedure: (§1) Sample dilutions are made in duplicate.
(§2) A frozen cryo-vial of cells expressing the receptor of interest is thawed rapidly in a water-bath, transferred to pre-warmed assay buffer and spun at 240×g for 5 minutes. Cells are re-suspended in assay buffer at a batch-dependent optimized concentration (e.g. hGCGR cells at 2×10^5 cells/ml, hGLP-1R and hGIPR cells at 1×10^5 cells/ml).
(§3) To this, 5 μL cell suspension is added and the plates incubated at room temperature for 30 minutes.
(§4) cAMP levels are measured using a commercially available cAMP dynamic 2 HTRF kit (Cisbio, Cat #62AM4PEJ), following the two step protocol as per manufacturer's recommendations. In brief; anti-cAMP cryptate (donor fluorophore) and cAMP-d2 (acceptor fluorophore) are made up separately by diluting each 1/20 in conjugate & lysis buffer provided in the kit. 5 μL anti-cAMP cryptate is added to wells of the assay plate, and 5 μL cAMP-d2 is added to wells except non-specific binding (NSB) wells, to which conjugate and lysis buffer are added. […] EC50 values of the synthetic peptides determined in cAMP assays are then determined.
(§5) Data is transformed to % Delta F as described in the manufacturer's guidelines and analyzed by 4-parameter logistic fit to determine EC50 values. […] To compare the balance of activities at the GLP-1R and GCGR between different peptides and across different conditions, these can be correlated, where the EC50's are related to those of comparator peptides.

[2] = target: T3, human GLP-1 receptor (GLP-1R) (Homo sapiens, UniProt P43220); experiment: cAMP assay, human GLP-1R cells
T3 construct: expressed in transfected cells; host or cells: HEK293 cells or CHO cells
T3 sequence (P43220 24-463): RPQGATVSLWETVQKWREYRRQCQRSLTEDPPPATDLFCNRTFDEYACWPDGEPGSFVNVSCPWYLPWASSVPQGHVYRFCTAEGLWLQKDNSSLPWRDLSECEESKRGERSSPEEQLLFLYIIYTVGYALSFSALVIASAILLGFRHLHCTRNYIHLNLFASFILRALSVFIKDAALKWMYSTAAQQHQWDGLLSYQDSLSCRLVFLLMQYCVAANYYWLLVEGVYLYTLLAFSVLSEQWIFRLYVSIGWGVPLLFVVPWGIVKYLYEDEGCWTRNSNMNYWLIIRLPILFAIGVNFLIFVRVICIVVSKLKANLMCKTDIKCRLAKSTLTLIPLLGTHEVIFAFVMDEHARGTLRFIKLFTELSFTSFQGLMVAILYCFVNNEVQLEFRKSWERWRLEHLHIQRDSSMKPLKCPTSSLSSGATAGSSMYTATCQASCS
In short: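 Peptide-stimulated cAMP measured by two-step HTRF after a 30 min room-temperature incubation with receptor-expressing cells (hGLP-1R, hGIPR at 1×10^5 cells/ml; hGCGR at 2×10^5 cells/ml). Duplicate dilutions; EC50 from 4-parameter logistic fit of % Delta F.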

[3] = target: T4, human glucose-dependent insulinotropic peptide receptor (GIPR) (Homo sapiens, UniProt P48546); experiment: cAMP assay, human GIPR cells
T4 construct: expressed in transfected cells; host or cells: HEK293 cells or CHO cells
T4 sequence (P48546 22-466): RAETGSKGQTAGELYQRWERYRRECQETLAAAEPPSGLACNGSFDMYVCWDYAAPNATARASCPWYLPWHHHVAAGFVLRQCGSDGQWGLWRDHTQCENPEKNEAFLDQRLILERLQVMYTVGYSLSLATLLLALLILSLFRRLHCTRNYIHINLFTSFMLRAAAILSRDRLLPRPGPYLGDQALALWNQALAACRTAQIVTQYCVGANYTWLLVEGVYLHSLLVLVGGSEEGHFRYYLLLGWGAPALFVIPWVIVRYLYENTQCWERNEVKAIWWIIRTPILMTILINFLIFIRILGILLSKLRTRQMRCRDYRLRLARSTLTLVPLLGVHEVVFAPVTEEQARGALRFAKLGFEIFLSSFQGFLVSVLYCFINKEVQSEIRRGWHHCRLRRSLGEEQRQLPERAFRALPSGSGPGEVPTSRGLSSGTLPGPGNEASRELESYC
Procedure: as §1, §2, §3, §4, §5

[4] = Table 8, substituted and mono-lipidated peptides, mean of n1 and n2, read-out: INS1e assay EC50 Mean pM GLP-1R

**Q.** `CCCCCCCCCCCCCCCCCC(=O)NCCOCCOCC(=O)NCCOCCOCC(=O)NCCOCCOCC(=O)NCCCC[C@H](NC(=O)[C@H](C)NC(=O)[C@H](C)NC(=O)[C@H](CCC(=O)O)NC(=O)CNC(=O)[C@H](CCC(=O)O)NC(=O)[C@H](CC(C)C)NC(=O)[C@](C)(Cc1ccccc1)NC(=O)[C@H](CO)NC(=O)[C@H](CO)NC(=O)[C@@H](NC(=O)[C@H](CC(=O)O)NC(=O)[C@H](CO)NC(=O)[C@@H](NC(=O)[C@](C)(Cc1ccccc1)NC(=O)[C@H](CO)NC(=O)CNC(=O)[C@H](CCC(=O)O)NC(=O)C(C)(C)NC(=O)[C@@H](N)Cc1c[nH]cn1)[C@@H](C)O)C(C)C)C(=O)N[C@@H](CCC(=O)O)C(=O)N[C@@](C)(Cc1ccccc1)C(=O)N[C@H](C(=O)N[C@@H](C)C(=O)N[C@@](C)(Cc1ccccc1)C(=O)N[C@H](C(=O)N[C@H](C(=O)N[C@@](C)(CCCCN)C(=O)NCC(=O)NCC(N)=O)C(C)C)C(C)C)[C@@H](C)CC` [compound 52] was tested. Which EC50 (GLP-1R (INS1e cells); [4]) did it give?
**A.** 20 pM

**Q.** How did the EC50 (GLP-1R (INS1e cells); [4]) turn out when `CCCCCCCCCCCCCCCC(=O)N[C@@H](CCC(=O)NCCCC[C@H](NC(=O)[C@H](CCC(=O)O)NC(=O)[C@](C)(CCCCN)NC(=O)[C@H](C)NC(=O)[C@H](C)NC(=O)[C@H](CCC(=O)O)NC(=O)CNC(=O)[C@H](CCC(=O)O)NC(=O)[C@H](CC(C)C)NC(=O)[C@](C)(Cc1ccccc1)NC(=O)[C@H](CO)NC(=O)[C@](C)(CO)NC(=O)[C@@H](NC(=O)[C@H](CC(=O)O)NC(=O)[C@H](CO)NC(=O)[C@@H](NC(=O)[C@](C)(Cc1ccccc1)NC(=O)[C@H](CO)NC(=O)CNC(=O)[C@H](CCC(=O)O)NC(=O)C(C)(C)NC(=O)[C@@H](N)Cc1c[nH]cn1)[C@@H](C)O)C(C)C)C(=O)N[C@H](C(=O)N[C@@H](C)C(=O)N[C@@](C)(Cc1ccccc1)C(=O)N[C@H](C(=O)N[C@H](C(=O)N[C@@](C)(CCCCN)C(=O)NCC(=O)NCC(N)=O)C(C)C)C(C)C)[C@@H](C)CC)C(=O)O` [compound 78] was run?
**A.** 346 pM

**Q.** What about the EC50 (GLP-1R (INS1e cells); Table 8, substituted and mono-lipidated peptides, replicate n2, read-out: INS1e assay EC50 GLP-1R n2) of the same molecule?
**A.** 346 pM

**Q.** Which EC50 ([1]; second replicate (n2), read-out: Primary assay EC50 Gluc-R) does the source give for `CC[C@H](C)[C@H](NC(=O)[C@](C)(Cc1ccccc1)NC(=O)[C@H](CCC(=O)O)NC(=O)[C@](C)(CCCCN)NC(=O)[C@H](C)NC(=O)[C@H](C)NC(=O)[C@H](CCC(=O)O)NC(=O)CNC(=O)[C@H](CCC(=O)O)NC(=O)[C@H](CC(C)C)NC(=O)[C@](C)(Cc1ccccc1)NC(=O)[C@H](CO)NC(=O)[C@](C)(CO)NC(=O)[C@@H](NC(=O)[C@H](CC(=O)O)NC(=O)[C@H](CO)NC(=O)[C@@H](NC(=O)[C@](C)(Cc1ccccc1)NC(=O)[C@H](CO)NC(=O)CNC(=O)[C@H](CCC(=O)O)NC(=O)C(C)(C)NC(=O)[C@@H](N)Cc1c[nH]cn1)[C@@H](C)O)C(C)C)C(=O)N[C@@H](C)C(=O)N[C@@](C)(Cc1ccccc1)C(=O)N[C@H](C(=O)N[C@H](C(=O)N[C@@H](CCCCNC(=O)COCCOCCNC(=O)CCCCCCCCCCCCCCCCC(=O)O)C(=O)NCC(=O)NCC(N)=O)C(C)C)C(C)C` [compound 197] here?
**A.** ≥ 27 nM

**Q.** What about the EC50 ([2]; mean of n1 and n2, read-out: Mean pM GLP-1R) of the same molecule?
**A.** 79 pM

**Q.** And the EC50 ([2]; replicate n1, read-out: Primary assay EC50 GLP-1R n1)?
**A.** 120 pM

**Q.** And the EC50 ([2]; replicate n2, read-out: Primary assay EC50 GLP-1R n2)?
**A.** 34 pM

**Q.** And the EC50 ([3]; first replicate, read-out: Primary assay EC50 GIP-R)?
**A.** ≥ 27 nM

**Q.** And the EC50 ([3]; second replicate (n2), read-out: Primary assay EC50 GIP-R)?
**A.** ≥ 27 nM

**Q.** How did the EC50 ([1]; Table 9, bis-lipidated peptides, first replicate, read-out: Primary assay EC50 Gluc-R (n1)) turn out when `CC[C@H](C)[C@H](NC(=O)[C@H](Cc1ccccc1)NC(=O)[C@H](CCC(=O)O)NC(=O)[C@](C)(CCCCN)NC(=O)[C@H](C)NC(=O)[C@H](C)NC(=O)[C@H](CCC(=O)O)NC(=O)CNC(=O)[C@H](CCC(=O)O)NC(=O)[C@H](CC(C)C)NC(=O)[C@H](CCCCNC(=O)COCCOCCNC(=O)COCCOCCNC(=O)CC[C@H](NC(=O)CCCCCCCCCCCCCCC(=O)O)C(=O)O)NC(=O)[C@H](CO)NC(=O)[C@](C)(CO)NC(=O)[C@@H](NC(=O)[C@H](CC(=O)O)NC(=O)[C@H](CO)NC(=O)[C@@H](NC(=O)[C@](C)(Cc1ccccc1)NC(=O)[C@H](CO)NC(=O)CNC(=O)[C@H](CCC(=O)O)NC(=O)C(C)(C)NC(=O)[C@@H](N)Cc1c[nH]cn1)[C@@H](C)O)C(C)C)C(=O)N[C@@H](C)C(=O)N[C@@H](Cc1c[nH]c2ccccc12)C(=O)N[C@@H](CCCCNC(=O)COCCOCCNC(=O)COCCOCCNC(=O)CC[C@H](NC(=O)CCCCCCCCCCCCCCC(=O)O)C(=O)O)C(=O)N[C@H](C(=O)N[C@@H](CCC(=O)O)C(=O)NCC(=O)NCC(N)=O)C(C)C` [compound 267] (H-H[Aib]EGS[αMeF]TSDV[αMeS]SK([AEEA-AEEA-γGlu-C16 diacid])LEGEAA[αMeK]EFIAWK([AEEA-AEEA-γGlu-C16 diacid])VEGG-NH2; N-terminus assumed) was run?
**A.** ≥ 21.7 nM

**Q.** What about the EC50 ([1]; Table 9, bis-lipidated peptides, second replicate, read-out: Primary assay EC50 Gluc-R (n2)) of the same molecule?
**A.** ≥ 21.7 nM

**Q.** What about the EC50 ([2]; Table 9, bis-lipidated peptides, mean of n1 and n2, read-out: Primary assay EC50 Mean pM GLP-1R) of the same molecule?
**A.** 569 pM

**Q.** What about the EC50 ([2]; Table 9, bis-lipidated peptides, replicate n1, read-out: Primary assay EC50 GLP-1R n1) of the same molecule?
**A.** 628 pM

**Q.** And the EC50 ([2]; Table 9, bis-lipidated peptides, replicate n2, read-out: Primary assay EC50 GLP-1R n2)?
**A.** 510 pM

**Q.** And the EC50 ([3]; Table 9, bis-lipidated peptides, first replicate, read-out: Primary assay EC50 GIP-R (n1))?
**A.** ≥ 21.7 nM

**Q.** And the EC50 ([3]; Table 9, bis-lipidated peptides, second replicate, read-out: Primary assay EC50 GIP-R (n2))?
**A.** ≥ 21.7 nM

**Q.** With `CCCCCCCCCCCC(=O)N[C@@H](CCC(=O)NCCOCCOCC(=O)NCCOCCOCC(=O)NCCCC[C@H](NC(=O)[C@H](C)NC(=O)[C@@H](NC(=O)[C@H](Cc1ccccc1)NC(=O)[C@H](CCCCNC(=O)COCCOCCNC(=O)COCCOCCNC(=O)CC[C@H](NC(=O)CCCCCCCCCCC)C(=O)O)NC(=O)[C@](C)(CCCCN)NC(=O)[C@H](C)NC(=O)[C@H](C)NC(=O)[C@H](CCC(=O)O)NC(=O)CNC(=O)[C@H](CCC(=O)O)NC(=O)[C@H](CCCCNC(=O)COCCOCCNC(=O)COCCOCCNC(=O)CC[C@H](NC(=O)CCCCCCCCCCC)C(=O)O)NC(=O)[C@H](Cc1ccc(O)cc1)NC(=O)[C@H](CO)NC(=O)[C@](C)(CO)NC(=O)[C@@H](NC(=O)[C@H](CC(=O)O)NC(=O)[C@H](CO)NC(=O)[C@@H](NC(=O)[C@](C)(Cc1ccccc1)NC(=O)[C@H](CO)NC(=O)CNC(=O)[C@H](CCC(=O)O)NC(=O)C(C)(C)NC(=O)[C@@H](N)Cc1c[nH]cn1)[C@@H](C)O)C(C)C)[C@@H](C)CC)C(=O)N[C@H](C(=O)N[C@H](C(=O)N[C@@H](CCC(=O)O)C(=O)NCC(=O)NCC(N)=O)C(C)C)C(C)C)C(=O)O` [compound 470] (H-H[Aib]EGS[αMeF]TSDV[αMeS]SYK([AEEA-AEEA-γGlu-Lauroyl])EGEAA[αMeK]K([AEEA-AEEA-γGlu-Lauroyl])FIAK([AEEA-AEEA-γGlu-Lauroyl])VVEGG-NH2; N-terminus assumed) as the molecule, how does the EC50 (GLP-1R (INS1e cells); Table 12, tris-lipidated peptides, mean of n1 and n2, read-out: INS1e assay EC50 Mean pM GLP-1R) read?
**A.** 3660 pM
